pIC50: −log10 of the molar value. Where two headings read alike, the source gives them in different places.
Key:
[1] = target: T1, IRAK1 (Homo sapiens, UniProt P51617); assay: RBC HotSpot Kinase Assay, IRAK1; format: biochemical; details: HotSpot functional assay, isolated kinase enzyme, 33P-ATP
T1 construct: purchased RBC (Reaction Biology) HotSpot assay
Outline: (§1)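 Isolated kinases, possibly truncated or lacking regulatory receptor regions, were preincubated with compound for 20 min at room temp in 20 mM Hepes pH 7.5, 10 mM MgCl2, 1 mM EGTA, 2 mM DTT, 1% DMSO. Reactions were started with ^33P-ATP and run 2 h at room temperature; activity was read by P81 filter binding.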

[2] = tested on: NF-κB; assay: NF-kB assay in THP-1-Blue NF-κB cells (SEAP reporter); format: cell-based
Experimental: THP-1-Blue NF-κB cells (InvivoGen) carrying a stable integrated NF-κB-inducible secreted embryonic alkaline phosphatase (SEAP) reporter construct were plated at a concentration of 1×10^5 cells per well. The cells were stimulated with Pam3CSK4 (1 ng/mL) or hIL1B (Ing/mL). After 10-20 minutes, the cells were then treated with vehicle (DMSO) or serial dilutions of the test compounds (10 doses tested for each test compound, with a 1:10 dilution series starting at 1 μM or 3 μM) with a final volume of 200 μL for 24 hours at 37° C. After 24 hours, the cells were centrifuged and 20 IL supernatant was incubated with 180 μL QUANTI-Blue reagent at 37° C. for 30-60 minutes. The levels of NF-κB-induced was measured in a microplate reader at 620 nm.

[3] = target: T2, IRAK4 (Homo sapiens, UniProt Q9NWZ3); assay: RBC HotSpot Kinase Assay, IRAK4; format: biochemical; design: purchased RBC (Reaction Biology) HotSpot assay; details: HotSpot functional assay, isolated kinase enzyme, 33P-ATP
T2 sequence (Q9NWZ3 1-460): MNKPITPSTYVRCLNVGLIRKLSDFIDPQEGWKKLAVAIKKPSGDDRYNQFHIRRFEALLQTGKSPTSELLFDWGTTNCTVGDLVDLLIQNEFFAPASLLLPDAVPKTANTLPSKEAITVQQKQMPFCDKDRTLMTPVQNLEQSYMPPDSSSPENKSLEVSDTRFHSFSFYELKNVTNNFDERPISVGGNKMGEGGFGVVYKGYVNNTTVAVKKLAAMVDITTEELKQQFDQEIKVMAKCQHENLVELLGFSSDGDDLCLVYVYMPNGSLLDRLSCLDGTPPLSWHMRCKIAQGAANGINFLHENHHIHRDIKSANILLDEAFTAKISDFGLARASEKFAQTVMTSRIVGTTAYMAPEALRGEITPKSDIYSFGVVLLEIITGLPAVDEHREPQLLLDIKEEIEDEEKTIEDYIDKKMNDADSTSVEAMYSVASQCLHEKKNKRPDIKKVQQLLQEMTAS
Outline: as §1

[4] = target: T3, FLT3 (Homo sapiens, UniProt P36888); assay: RBC HotSpot Kinase Assay, FLT3; format: biochemical; design: purchased RBC (Reaction Biology) HotSpot assay; details: HotSpot functional assay, isolated kinase enzyme, 33P-ATP
T3 sequence (P36888 27-993): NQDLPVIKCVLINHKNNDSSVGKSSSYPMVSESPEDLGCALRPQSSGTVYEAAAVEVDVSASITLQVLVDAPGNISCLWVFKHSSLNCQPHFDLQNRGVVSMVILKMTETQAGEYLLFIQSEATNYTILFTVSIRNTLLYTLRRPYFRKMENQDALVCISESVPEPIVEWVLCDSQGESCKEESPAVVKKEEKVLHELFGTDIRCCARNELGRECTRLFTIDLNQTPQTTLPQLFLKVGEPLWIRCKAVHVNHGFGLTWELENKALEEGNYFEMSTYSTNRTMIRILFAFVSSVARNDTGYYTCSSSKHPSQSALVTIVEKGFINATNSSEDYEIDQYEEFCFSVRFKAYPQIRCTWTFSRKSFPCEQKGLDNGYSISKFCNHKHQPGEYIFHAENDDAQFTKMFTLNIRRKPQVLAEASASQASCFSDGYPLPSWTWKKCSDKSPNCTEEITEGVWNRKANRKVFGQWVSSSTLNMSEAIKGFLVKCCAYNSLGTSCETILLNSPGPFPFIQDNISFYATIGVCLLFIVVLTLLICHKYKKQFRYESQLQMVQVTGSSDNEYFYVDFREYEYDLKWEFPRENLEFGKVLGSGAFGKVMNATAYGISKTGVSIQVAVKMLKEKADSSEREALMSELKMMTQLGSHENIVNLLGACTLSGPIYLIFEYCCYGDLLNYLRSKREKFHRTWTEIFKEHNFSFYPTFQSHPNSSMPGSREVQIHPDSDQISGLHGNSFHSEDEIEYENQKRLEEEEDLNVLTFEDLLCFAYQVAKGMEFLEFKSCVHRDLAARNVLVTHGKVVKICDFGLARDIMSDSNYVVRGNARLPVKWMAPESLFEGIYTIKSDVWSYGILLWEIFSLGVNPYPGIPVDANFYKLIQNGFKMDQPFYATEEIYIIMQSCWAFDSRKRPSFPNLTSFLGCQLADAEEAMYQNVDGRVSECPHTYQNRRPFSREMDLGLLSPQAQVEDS
Outline: as §1

[5] = tested on: MOLM14 D835Y cells; assay: MOLM14 D835Y cell viability assay (Cell Titer Glo); format: cell-based; details: Homo sapiens, MOLM-14, 48 h
Experimental: The cell line has activated FLT3 receptors which carry additional resistance mutations in the kinase domain (D835Y).
MOLM14 D835Y cells were grown in RPMI-1640 media supplemented with 20% fetal bovine serum (FBS). […] After cell addition, 23 nL of test compound were transferred into individual wells (22 doses tested for each test compound, with a 1:2 dilution series starting at 10 μM) via a 1536 pin-tool. Bortezomib (final concentration 2.3 μM) was used as a positive control for cell cytotoxicity.

[6] = THP-1-Blue NF-κB cells stimulated with Pam3CSK4, 24 hours, read-out: NF-κB Pam3SCK4 IC50
[7] = THP-1-Blue NF-κB cells stimulated with hIL1B, 24 hours, read-out: NF-κB IL1B IC50

T1 sequence (P51617 whole entry): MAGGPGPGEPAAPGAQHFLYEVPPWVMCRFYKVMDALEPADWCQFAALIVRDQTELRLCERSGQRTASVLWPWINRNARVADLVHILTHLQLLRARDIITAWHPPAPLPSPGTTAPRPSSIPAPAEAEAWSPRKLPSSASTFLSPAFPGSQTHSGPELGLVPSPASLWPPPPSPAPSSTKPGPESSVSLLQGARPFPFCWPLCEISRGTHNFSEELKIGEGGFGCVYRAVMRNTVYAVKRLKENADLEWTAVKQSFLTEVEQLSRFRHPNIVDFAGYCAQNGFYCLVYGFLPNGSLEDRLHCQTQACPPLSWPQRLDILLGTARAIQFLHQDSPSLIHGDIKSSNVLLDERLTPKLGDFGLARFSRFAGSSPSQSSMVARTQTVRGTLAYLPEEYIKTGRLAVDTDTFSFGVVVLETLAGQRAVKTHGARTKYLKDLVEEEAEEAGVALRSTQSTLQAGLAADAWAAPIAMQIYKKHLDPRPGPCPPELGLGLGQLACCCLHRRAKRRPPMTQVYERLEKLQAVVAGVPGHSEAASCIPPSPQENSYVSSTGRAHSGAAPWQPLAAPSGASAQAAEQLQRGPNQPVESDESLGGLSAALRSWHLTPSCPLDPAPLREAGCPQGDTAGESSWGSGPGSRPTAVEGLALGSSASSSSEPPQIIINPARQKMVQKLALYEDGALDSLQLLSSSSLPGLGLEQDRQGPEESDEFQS

| pIC50 [2, 6] | pIC50 [2, 7] | SMILES | pIC50 [1] | pIC50 [3] | pIC50 [4] | pIC50 [5] |
| --- | --- | --- | --- | --- | --- | --- |
| 5.59 | 5.59 | COc1cc2ncc(-c3nc(N[C@@H]4CCCNC4)c(F)cc3F)n2nc1C1CC(C)(C)C1 [Compound 7a, (R)-6-(6-(3,3-dimethylcyclobutyl)-7-methoxyimidazo[1,2-b]pyridazin-3-yl)-3,5-difluoro-N-(piperidin-3-yl)pyridin-2-amine] | 7.66 | 7.89 | > 9.30 | – |
| 6.69 | 6.32 | COc1cc2ncc(-c3ccc(C#N)c(N[C@@H]4CCCNC4)n3)n2nc1C1CC1 [Compound 28a, (R)-6-(6-cyclopropyl-7-methoxyimidazo[1,2-b]pyridazin-3-yl)-2-(piperidin-3-ylamino)nicotinonitrile] | 6.08 | 7.89 | > 9.30 | – |
| 7.18 | 7.15 | COc1cc2ncc(-c3ccc(C#N)c(N[C@H]4CNCC[C@@H]4F)n3)n2nc1C1CC1 [Compound 29a, 6-(6-cyclopropyl-7-methoxyimidazo[1,2-b]pyridazin-3-yl)-2-(((3S,4S)-4-fluoropiperidin-3-yl)amino)nicotinonitrile] | 8.00 | > 9.30 | > 9.30 | – |
| – | – | COc1cc2ncc(-c3ccc(C)c(N[C@H]4CNC[C@@H]4F)n3)n2nc1C1CC1 [Compound 42a, 6-(6-cyclopropyl-7-methoxyimidazo[1,2-b]pyridazin-3-yl)-N-((3S,4S)-4-fluoropyrrolidin-3-yl)-3-methylpyridin-2-amine] | < 5.00 | 5.07 | 6.87 | 5.14 |
| – | – | COc1cc2ncc(-c3nc(N[C@H]4CNC[C@@H]4F)ccc3C)n2nc1C1CC1 [Compound 43a, 6-(6-cyclopropyl-7-methoxyimidazo[1,2-b]pyridazin-3-yl)-N-((3S,4S)-4-fluoropyrrolidin-3-yl)-5-methylpyridin-2-amine] | 5.08 | 6.47 | 9.15 | 6.19 |
| – | – | COc1cc2ncc(-c3nc(N[C@@H]4CCCNC4)ccc3F)n2nc1C1CC1 [Compound 44a, (R)-6-(6-cyclopropyl-7-methoxyimidazo[1,2-b]pyridazin-3-yl)-5-fluoro-N-(piperidin-3-yl)pyridin-2-amine] | 7.21 | 8.70 | > 9.30 | 8.52 |
| – | – | COc1cc2ncc(-c3ccc(F)c(N[C@H]4CNCC[C@@H]4F)n3)n2nc1C1CC1 [Compound 48a, 6-(6-cyclopropyl-7-methoxyimidazo[1,2-b]pyridazin-3-yl)-3-fluoro-N-((3S,4S)-4-fluoropiperidin-3-yl)pyridin-2-amine] | 6.77 | 9.00 | > 9.30 | 7.59 |
| – | – | COc1cc2ncc(-c3ccc(F)c(N[C@@H]4CCCNC4)n3)n2nc1C1CC1 [Compound 49a, (R)-6-(6-cyclopropyl-7-methoxyimidazo[1,2-b]pyridazin-3-yl)-3-fluoro-N-(piperidin-3-yl)pyridin-2-amine] | 6.35 | 8.52 | > 9.30 | 7.29 |
| 6.51 | 6.39 | COc1cc2ncc(-c3nc(N[C@@H]4CCCNC4)c(F)cc3F)n2nc1C12CC(C1)C2 [Compound 65a, (R)-6-(6-(bicyclo[1.1.1]pentan-1-yl)-7-methoxyimidazo[1,2-b]pyridazin-3-yl)-3,5-difluoro-N-(piperidin-3-yl)pyridin-2-amine] | 7.74 | 8.05 | > 9.30 | – |
| 7.10 | 7.01 | COc1cc2ncc(-c3nc(N[C@H]4CNC[C@@H]4F)c(F)cc3F)n2nc1C1COC1 [Compound 71a, 3,5-difluoro-N-((3S,4S)-4-fluoropyrrolidin-3-yl)-6-(7-methoxy-6-(oxetan-3-yl)imidazo[1,2-b]pyridazin-3-yl)pyridin-2-amine] | 7.30 | 9.00 | > 9.30 | – |
| 6.60 | 6.46 | COc1cc2ncc(-c3nc(N[C@H]4CNCC[C@@H]4F)c(F)cc3F)n2nc1C1CCO1 (stereo partly drawn) [Compound 74a, 3,5-difluoro-N-((3S,4S)-4-fluoropiperidin-3-yl)-6-(7-methoxy-6-(oxetan-2-yl)imidazo[1,2-b]pyridazin-3-yl)pyridin-2-amine] | 7.23 | 8.52 | > 9.30 | – |
| 5.76 | 5.64 | Oc1cc2ncc(-c3nc(N[C@@H]4CCCNC4)c(F)cc3F)n2nc1C1CC1 [Compound 75a, (R)-6-cyclopropyl-3-(3,5-difluoro-6-(piperidin-3-ylamino)pyridin-2-yl)imidazo[1,2-b]pyridazin-7-ol] | 6.33 | 7.47 | 9.10 | – |
| – | – | Fc1cc(F)c(-c2cnc3cc(OCC(F)F)cnn23)nc1N[C@H]1CNC[C@@H]1F [Compound 82a, 6-(7-(2,2-difluoroethoxy)imidazo[1,2-b]pyridazin-3-yl)-3,5-difluoro-N-((3 S,4S)-4-fluoropyrrolidin-3-yl)pyridin-2-amine] | 6.36 | 8.05 | > 9.30 | 6.69 |
| – | – | Fc1cc(F)c(-c2cnc3cc(OCC(F)F)cnn23)nc1N[C@@H]1CCCNC1 [Compound 83a, (R)-6-(7-(2,2-difluoroethoxy)imidazo[1,2-b]pyridazin-3-yl)-3,5-difluoro-N-(piperidin-3-yl)pyridin-2-amine] | 5.76 | 7.28 | 9.30 | 7.04 |
| – | – | Fc1cc(F)c(-c2cnc3cc(OCC(F)F)cnn23)nc1N[C@H]1CNCC[C@@H]1F [Compound 84a, 6-(7-(2,2-difluoroethoxy)imidazo[1,2-b]pyridazin-3-yl)-3,5-difluoro-N-((3S,4S)-4-fluoropiperidin-3-yl)pyridin-2-amine] | 6.07 | 8.40 | > 9.30 | 7.34 |

| SMILES | pIC50 [2, 6] | pIC50 [2, 7] | pIC50 [1] | pIC50 [3] | pIC50 [4] | pIC50 [5] |
| --- | --- | --- | --- | --- | --- | --- |
| COc1cc2ncc(-c3nc(N[C@H]4CNC[C@@H]4F)ccc3F)n2nc1C1CC1 [Compound 45a, 6-(6-cyclopropyl-7-methoxyimidazo[1,2-b]pyridazin-3-yl)-5-fluoro-N-((3S,4S)-4-fluoropyrrolidin-3-yl)pyridin-2-amine] | 7.36 | 7.35 | 7.43 | > 9.30 | > 9.30 | 7.70 |
